Assay: Stability of hydroxyurea on removal of citric acid from the composition
Format: physicochemical
Settings: removal of the stabilizer citric acid from the composition
Excerpt: The commercially available hydroxyurea tablets contain citric acid.

Q: Which stability of hydroxyurea does the source give for `NC(=O)NO` [hydroxyurea] here?
A: Its stability of hydroxyurea is “not significantly affected”.
